The source made the active and inactive calls. No cut-off for these calls is given here.
What was measured:
[1] = AUC (0 to t) in ICR mouse at 10 mg/kg, po measured upto 24 hrs by LC-MS/MS analysis; format: ADME, organism-based; details: in vivo
[2] = test system: Mus musculus; experiment: Anti-osteoporosis activity in ovariectomized C57BL/6 mouse assessed as prevention of bone loss by measuring recovery of trabecular thickness in femur at 0.2 to 0.6 mg/kg, ip administered every day for 6 weeks by 3D-imaging analysis; format: functional, organism-based; details: dose 0.2-0.6 mg/kg
[3] = test system: BMMC; experiment: Anti-osteoclastogenesis activity in M-CSF/RANKL-induced C57BL/6J mouse BMMC cells assessed as reduction in TRAP mRNA expression at 0.05 to 5 uM measured after 2 days by RT-qPCR analysis; format: functional, cell-based; details: dose 0.05-5 µM, time 2.0 day
[4] = test system: BMMC; experiment: Potency index, ratio of bisnoralcohol IC50 to test compound IC50 for anti-osteoclastogenesis activity in M-CSF/RANKL-induced C57BL/6J mouse BMMC cells assessed as inhibition of osteoclast differentiation incubated for 7 days by TRAP staining based analysis; format: functional; details: time 7 day
[5] = Cmax in ICR mouse at 1 mg/kg, iv measured upto 24 hrs by LC-MS/MS analysis; format: ADME, organism-based; details: in vivo
[6] = Cytotoxicity against M-CSF induced C57BL/6J mouse BMMC cells assessed as cell viability at 10 uM incubated for 48 hrs by CCK-8 assay relative to control; format: toxicity, cell-based; details: read-out: Activity
[7] = test system: Mus musculus; experiment: Anti-osteoporosis activity in ovariectomized C57BL/6 mouse assessed as prevention of bone loss by measuring recovery of trabecular number in femur at 0.6 mg/kg, ip administered every day for 6 weeks by 3D-imaging analysis relative to control; format: functional
[8] = test system: Mus musculus; experiment: Anti-osteoporosis activity in ovariectomized C57BL/6 mouse assessed as prevention of bone loss by measuring recovery of BV/TV in femur at 0.6 mg/kg, ip administered every day for 6 weeks by 3D-imaging analysis relative to control; format: functional
[9] = test system: BMMC; experiment: Anti-osteoclastogenesis activity in M-CSF/RANKL-induced C57BL/6J mouse BMMC cells assessed as reduction in MMP9 mRNA expression at 0.05 to 5 uM measured after 2 days by RT-qPCR analysis; format: functional, cell-based; details: dose 0.05-5 µM, time 2.0 day
[10] = test system: BMMC; experiment: Anti-osteoclastogenesis activity in M-CSF/RANKL-induced C57BL/6J mouse BMMC cells assessed as reduction in MMP9 protein expression measured after 3 days by Western blot analysis; format: functional, cell-based; details: dose 0.05-5 µM, time 3.0 day
[11] = test system: BMMC; experiment: Anti-osteoclastogenesis activity in M-CSF/RANKL-induced C57BL/6J mouse BMMC cells assessed as inhibition of Acp5 gene expression by RNA sequencing analysis; format: functional, cell-based
[12] = test system: Mus musculus; experiment: Anti-osteoporosis activity in ovariectomized C57BL/6 mouse assessed as prevention of bone loss by measuring reduction in osteoclast formation at 0.6 mg/kg, ip administered every day for 6 weeks by H and E staining based analysis; format: functional, organism-based
[13] = test system: BMMC; experiment: Anti-osteoclastogenesis activity in M-CSF/RANKL-induced C57BL/6J mouse BMMC cells assessed as inhibition of osteoclast differentiation at mid-stage at 0.1 uM measured after 3 to 5 days by TRAP staining based analysis relative to control; format: functional; details: time 3-5 day
[14] = test system: BMMC; experiment: Anti-osteoclastogenesis activity in M-CSF/RANKL-induced C57BL/6J mouse BMMC cells assessed as inhibition of osteoclast differentiation incubated for 7 days by TRAP staining based analysis; format: functional, cell-based; details: 168 h
[15] = test system: BMMC; experiment: Anti-osteoclastogenesis activity in M-CSF/RANKL-induced C57BL/6J mouse BMMC cells assessed as reduction in osteoclast generation at 0.05 uM incubated for 7 days by TRAP staining based analysis relative to control; format: functional; parameters: scale not given: the % may be the effect or the level left; details: time 7 day
[16] = test system: BMMC; experiment: Anti-osteoclastogenesis activity in M-CSF/RANKL-induced C57BL/6J mouse BMMC cells assessed as inhibition of osteoclast differentiation at late stage at 0.1 uM measured after 5 to 7 days by TRAP staining based analysis relative to control; format: functional; details: time 5-7 day
[17] = test system: BMMC; experiment: Anti-osteoclastogenesis activity in M-CSF/RANKL-induced C57BL/6J mouse BMMC cells assessed as reduction in TRAP protein expression measured after 3 days by Western blot analysis; format: functional, cell-based; details: dose 0.05-5 µM, time 3.0 day
[18] = Tmax in ICR mouse at 10 mg/kg, po measured upto 24 hrs by LC-MS/MS analysis; format: ADME, organism-based; details: in vivo
[19] = Oral bioavailability in ICR mouse at 10 mg/kg measured upto 24 hrs by LC-MS/MS analysis; format: ADME, organism-based; details: in vivo
[20] = AUC (0 to infinity) in ICR mouse at 1 mg/kg, iv measured upto 24 hrs by LC-MS/MS analysis; format: ADME, organism-based; details: in vivo
[21] = test system: BMMC; experiment: Anti-osteoclastogenesis activity in M-CSF/RANKL-induced C57BL/6J mouse BMMC cells assessed as reduction in size and amount of osteoclasts by measuring reduction in TRAP-positive multinucleated cells incubated for 7 days by TRAP staining based analysis; format: functional, cell-based; details: dose 0.05-0.5 µM, time 7.0 day

CCNC(=O)[C@@H](C)[C@H]1CC[C@H]2[C@@H]3CC=C4C(C)(C)c5nnsc5C[C@]4(C)[C@H]3CC[C@]12C
AUC(0-t) at 24 h [1]: 654 ng·h/mL | Activity [2]: inactive | Activity [3]: Active | Ratio IC50 [4]: 45 | Cmax [5]: 484 ng/mL | viability at 48 h, 10 µM [6]: ≥ 100% | Activity [7]: 48.64% | Activity [8]: 57.15% | Activity [9]: Active | Activity [10]: Dose-Dependent Effect | Activity [11]: Active | Activity [12]: Active | inhibition at 0.1 µM [13]: 40.2% | IC50 [14]: 52 nM | Activity [15]: 50% | inhibition at 0.1 µM [16]: 10.9% | Activity [17]: Dose-Dependent Effect | Tmax [18]: 40.2 min | bioavailability [19]: 13.1% | AUC(0-inf) [20]: 526 ng·h/mL | Activity [21]: Dose-Dependent Effect

From ChEMBL document CHEMBL5506037, “Synthesis of Heterocyclic Ring-Fused Bisnoralcohol Derivatives as Novel Small-Molecule Antiosteoporosis Agents” (J Med Chem, 2024)
